PMC6600881 (Gut Pathogens, 2019)

Target: T1, P. aeruginosa PGDH (SerA) (Pseudomonas aeruginosa, UniProt Q9I6H5)
T1 construct: full-length ORF, N-terminal GST fusion (pGEX-6P-1), GST cut off on resin by protease, expressed in E. coli BL21, 44 kDa
T1 sequence (Q9I6H5 1-409): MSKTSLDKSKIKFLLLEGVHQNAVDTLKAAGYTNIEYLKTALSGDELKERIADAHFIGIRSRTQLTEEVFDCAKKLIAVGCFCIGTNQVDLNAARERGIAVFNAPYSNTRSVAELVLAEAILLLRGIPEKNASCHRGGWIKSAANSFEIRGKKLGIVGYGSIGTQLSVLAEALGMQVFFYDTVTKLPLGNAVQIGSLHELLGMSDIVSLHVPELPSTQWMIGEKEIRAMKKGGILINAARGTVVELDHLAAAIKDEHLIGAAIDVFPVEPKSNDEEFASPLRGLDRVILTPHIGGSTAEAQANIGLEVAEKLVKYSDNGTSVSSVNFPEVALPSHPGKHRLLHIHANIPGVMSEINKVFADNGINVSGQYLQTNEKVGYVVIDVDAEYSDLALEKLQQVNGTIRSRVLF
Experiment: NADH formation at […] nm
Assay type: biochemical

| SMILES | IC50 |
| --- | --- |
| N[C@H](CO)C(=O)O [D-serine] | 76 mM |
| N[C@@H](CO)C(=O)O [L-serine] | 0.63 mM |
